Experimental data: patent US20250129078A1, “ERBB2 INHIBITORS” (Cogent Biosciences, Inc., priority 2023, published 2025)

Assays:
ErbB2 V777L = ErbB2 V777L (Homo sapiens (Human), UniProt P04626, V777L); assay: ErbB enzyme assay (CisBio HTRF-KinEASE-TK), ErbB2 V777L; type: biochemical
In short: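 HTRF KinEASE-TK tyrosine-kinase read-out of substrate phosphorylation after a final 1 h at ambient temperature, from the 655/620 nm emission ratio.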

EGFR WT = EGFR WT (Homo sapiens (Human), UniProt P00533); assay: ErbB enzyme assay (CisBio HTRF-KinEASE-TK), EGFR WT; type: biochemical; conditions: ATP at Km (25 μM), 1 h incubation
In short: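 Three-fold DMSO serial dilutions were added to kinase reactions and incubated 1 h at room temperature. Quench used 62.5 nM Sa-XL665 plus 0.25×TK-Ab-Cryptate in detection buffer, followed by another 1 h. Substrate phosphorylation was then measured by dual-wavelength HTRF.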

EGFR WT, sequence (P00533 25-1210): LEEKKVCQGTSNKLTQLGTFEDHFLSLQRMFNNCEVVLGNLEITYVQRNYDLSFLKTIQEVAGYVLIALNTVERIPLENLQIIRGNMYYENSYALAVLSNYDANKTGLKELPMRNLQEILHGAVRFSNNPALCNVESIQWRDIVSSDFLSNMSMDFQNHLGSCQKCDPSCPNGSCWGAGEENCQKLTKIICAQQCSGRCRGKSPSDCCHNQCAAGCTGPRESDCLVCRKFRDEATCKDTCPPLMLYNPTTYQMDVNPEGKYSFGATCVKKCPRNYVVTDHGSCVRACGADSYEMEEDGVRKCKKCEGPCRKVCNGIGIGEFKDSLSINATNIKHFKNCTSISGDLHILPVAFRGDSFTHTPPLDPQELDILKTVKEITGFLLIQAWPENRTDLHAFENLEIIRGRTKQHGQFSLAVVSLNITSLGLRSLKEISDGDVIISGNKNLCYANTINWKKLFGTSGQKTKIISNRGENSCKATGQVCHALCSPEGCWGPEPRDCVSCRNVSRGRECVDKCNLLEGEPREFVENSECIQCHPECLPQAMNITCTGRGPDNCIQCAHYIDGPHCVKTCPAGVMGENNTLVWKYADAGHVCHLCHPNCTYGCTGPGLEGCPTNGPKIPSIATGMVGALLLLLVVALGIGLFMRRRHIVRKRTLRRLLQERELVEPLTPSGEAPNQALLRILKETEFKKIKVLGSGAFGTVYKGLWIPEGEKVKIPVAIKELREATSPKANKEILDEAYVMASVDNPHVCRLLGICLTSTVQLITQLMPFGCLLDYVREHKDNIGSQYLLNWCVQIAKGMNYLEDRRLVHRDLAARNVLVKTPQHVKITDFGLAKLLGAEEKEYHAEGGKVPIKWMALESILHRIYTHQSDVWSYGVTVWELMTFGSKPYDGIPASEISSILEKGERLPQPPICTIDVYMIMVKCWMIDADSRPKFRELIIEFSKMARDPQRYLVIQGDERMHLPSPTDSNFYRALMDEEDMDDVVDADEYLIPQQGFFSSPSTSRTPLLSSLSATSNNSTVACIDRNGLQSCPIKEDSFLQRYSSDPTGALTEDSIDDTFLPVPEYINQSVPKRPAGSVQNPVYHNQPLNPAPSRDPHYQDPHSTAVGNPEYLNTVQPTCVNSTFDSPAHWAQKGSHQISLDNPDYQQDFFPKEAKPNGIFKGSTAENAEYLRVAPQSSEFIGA
ErbB2 V777L, sequence (P04626 23-1255 V777L): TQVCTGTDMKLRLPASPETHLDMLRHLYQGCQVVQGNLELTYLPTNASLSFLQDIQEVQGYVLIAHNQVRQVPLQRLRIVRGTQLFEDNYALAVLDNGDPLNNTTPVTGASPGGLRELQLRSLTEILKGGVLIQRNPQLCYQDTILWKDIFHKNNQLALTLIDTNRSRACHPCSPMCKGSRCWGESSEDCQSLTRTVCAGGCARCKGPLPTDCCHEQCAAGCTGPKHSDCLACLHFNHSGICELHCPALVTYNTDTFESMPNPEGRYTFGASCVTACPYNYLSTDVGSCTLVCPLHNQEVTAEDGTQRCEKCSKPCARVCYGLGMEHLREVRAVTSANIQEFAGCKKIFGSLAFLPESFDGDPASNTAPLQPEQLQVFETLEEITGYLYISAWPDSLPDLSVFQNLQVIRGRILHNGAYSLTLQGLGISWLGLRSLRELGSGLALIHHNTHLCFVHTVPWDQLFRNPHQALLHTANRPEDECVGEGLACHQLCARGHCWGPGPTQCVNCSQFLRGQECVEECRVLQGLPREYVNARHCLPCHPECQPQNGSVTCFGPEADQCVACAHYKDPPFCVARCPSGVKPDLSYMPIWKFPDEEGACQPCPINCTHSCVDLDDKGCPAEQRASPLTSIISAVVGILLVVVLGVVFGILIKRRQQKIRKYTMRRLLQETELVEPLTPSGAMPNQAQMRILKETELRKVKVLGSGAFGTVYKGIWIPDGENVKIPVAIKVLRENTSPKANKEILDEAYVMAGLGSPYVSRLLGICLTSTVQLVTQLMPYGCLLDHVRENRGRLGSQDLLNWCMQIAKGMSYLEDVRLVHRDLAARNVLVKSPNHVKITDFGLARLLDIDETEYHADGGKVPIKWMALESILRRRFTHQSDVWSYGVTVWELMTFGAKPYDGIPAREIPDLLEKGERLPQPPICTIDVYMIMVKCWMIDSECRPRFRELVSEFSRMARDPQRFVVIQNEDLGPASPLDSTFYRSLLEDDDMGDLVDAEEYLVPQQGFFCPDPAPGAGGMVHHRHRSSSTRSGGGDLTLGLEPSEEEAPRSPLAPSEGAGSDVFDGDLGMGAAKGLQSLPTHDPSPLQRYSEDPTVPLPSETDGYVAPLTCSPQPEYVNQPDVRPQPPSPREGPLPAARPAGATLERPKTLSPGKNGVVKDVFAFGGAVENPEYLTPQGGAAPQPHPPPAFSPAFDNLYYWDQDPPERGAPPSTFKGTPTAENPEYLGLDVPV

Row | SMILES | IC50 (ErbB2 V777L) [nM] | IC50 (EGFR WT) [nM]
1 | C=CC(=O)NC1CC2(C1)CN(c1ncc3ncnc(Nc4ccc(Oc5ccc6c(c5)nnn6C)c(C)c4)c3n1)C2 [Compound 225, N-(2-(8-((3-methyl-4-((1-methyl-1H-benzo[d][1,2,3]triazol-5-yl)oxy)phenyl)amino)pyrimido[5,4-d]pyrimidin-2-yl)-2-azaspiro[3.3]heptan-6-yl)acrylamide] | 100 to 500 | 500 to 1000
2 | C=CC(=O)N(C)C1C2CN(c3ncc4ncnc(Nc5ccc(Oc6ccc7c(c6)nnn7C)c(C)c5F)c4n3)CC21 (stereo not shown) [Compound 226, N-(3-(8-((2-fluoro-3-methyl-4-((1-methyl-1H-benzo[d][1,2,3]triazol-5-yl)oxy)phenyl)amino)pyrimido[5,4-d]pyrimidin-2-yl)-3-azabicyclo[3.1.0]hexan-6-yl)-N-methylacrylamide] | 100 to 500 | 100 to 500
3 | C=CC(=O)N1CCN(c2ncc3ncnc(Nc4ccc(Oc5ccc6c(c5)nnn6C)c(C)c4)c3n2)CC[C@@H]1C [Compound 228, (S)-1-(7-methyl-4-(8-((3-methyl-4-((1-methyl-1H-benzo[d][1,2,3]triazol-5-yl)oxy)phenyl)amino)pyrimido[5,4-d]pyrimidin-2-yl)-1,4-diazepan-1-yl)prop-2-en-1-one] | 100 to 500 | 500 to 1000
4 | C=C(F)C(=O)N1CCN(c2ncc3ncnc(Nc4ccc(Oc5ccc6c(c5)nnn6C)c(C)c4)c3n2)C[C@@H]1C(F)(F)F [Compound 231, (R)-2-fluoro-1l-(4-(8-((3-methyl-4-((1-methyl-1H-benzo[d][1,2,3]triazol-5-yl)oxy)phenyl)amino)pyrimido[5,4-d]pyrimidin-2-yl)-2-(trifluoromethyl)piperazin-1-yl)prop-2-en-1-one] | 500 to 1000 | 500 to 1000
5 | C=CC(=O)N(C)C1CC2(C1)CN(c1ncc3ncnc(Nc4ccc(Oc5ccc6c(c5)nnn6C)c(C)c4)c3n1)C2 [Compound 232, N-methyl-N-(2-(8-((3-methyl-4-((1-methyl-H-benzo[d][1,2,3]triazol-5-yl)oxy)phenyl)amino)pyrimido[5,4-d]pyrimidin-2-yl)-2-azaspiro[3.3]heptan-6-yl)acrylamide] | 500 to 1000 | ≥ 1000
6 | C=C1CCN([C@@H]2CCN(c3ncc4ncnc(Nc5ccc(Oc6ccn7ncnc7c6)c(C)c5)c4n3)C2)C1=O [Compound 238, (R)-1′-(8-((4-([1,2,4]triazolo[1,5-a]pyridin-7-yloxy)-3-methylphenyl)amino)pyrimido[5,4-d]pyrimidin-2-yl)-3-methylene-[1,3′-bipyrrolidin]-2-one] | 100 to 500 | ≥ 1000
7 | C=C1CCN([C@H]2CCN(c3ncc4ncnc(Nc5ccc(Oc6ccn7ncnc7c6)c(C)c5)c4n3)C2)C1=O [Compound 239, (S)-1′-(8-((4-([1,2,4]triazolo[1,5-a]pyridin-7-yloxy)-3-methylphenyl)amino)pyrimido[5,4-d]pyrimidin-2-yl)-3-methylene-[1,3′-bipyrrolidin]-2-one] | 50 to 100 | 500 to 1000
8 | C=C1CCN(C2CCN(c3ncc4ncnc(Nc5ccc(Oc6ccn7ncnc7c6)c(C)c5)c4n3)CC2)C1=O [Compound 240, 1-(1-(8-((4-([1,2,4]triazolo[1,5-a]pyridin-7-yloxy)-3-methylphenyl)amino)pyrimido[5,4-d]pyrimidin-2-yl)piperidin-4-yl)-3-methylenepyrrolidin-2-one] | 100 to 500 | ≥ 1000
9 | C=CC(=O)N1CC2C(C1)N2c1ncc2ncnc(Nc3ccc(Oc4ccc5c(c4)nnn5C)c(C)c3)c2n1 (stereo not shown) [Compound 242, 1-(6-(8-((3-methyl-4-((1-methyl-1H-benzo[d][1,2,3]triazol-5-yl)oxy)phenyl)amino)pyrimido[5,4-d]pyrimidin-2-yl)-3,6-diazabicyclo[3.1.0]hexan-3-yl)prop-2-en-1-one] | 500 to 1000 | 100 to 500
10 | C=CC(=O)N1C[C@H]2CN(c3ncc4ncnc(Nc5ccc(Oc6ccc7c(c6)nnn7C)c(C)c5)c4n3)C[C@H]21 [Compound 243, cis-1-((1r,5s)-3-(8-((3-methyl-4-((1-methyl-1H-benzo[d][1,2,3]triazol-5-yl)oxy)phenyl)amino)pyrimido[5,4-d]pyrimidin-2-yl)-3,6-diazabicyclo[3.2.0]heptan-6-yl)prop-2-en-1-one] | 100 to 500 | 100 to 500
11 | C=C(F)C(=O)N1CCN(c2ccc3ncnc(Nc4ccc(Oc5ccc6c(c5)nnn6C)c(C)c4)c3n2)CC1 [Compound 245, 2-fluoro-1-(4-(4-((3-methyl-4-((1-methyl-1H-benzo[d][1,2,3]triazol-5-yl)oxy)phenyl)amino)pyrido[3,2-d]pyrimidin-6-yl)piperazin-1-yl)prop-2-en-1-one] | 100 to 500 | 500 to 1000
12 | C=CC(=O)N1CCN(c2ccc3ncnc(Nc4ccc(Oc5ccc6c(c5)nnn6C)c(C)c4F)c3n2)C[C@H]1C [Compound 246, (R)-1-(4-(4-((2-fluoro-3-methyl-4-((1-methyl-1H-benzo[d][1,2,3]triazol-5-yl)oxy)phenyl)amino)pyrido[3,2-d]pyrimidin-6-yl)-2-methylpiperazin-1-yl)prop-2-en-1-one] | 50 to 100 | 100 to 500
13 | C=CC(=O)N1CCN(c2ccc3ncnc(Nc4ccc(Oc5cc6ncn(C)c6nc5C)c(C)c4)c3n2)C[C@H]1C [Compound 247, (R)-1-(4-(4-((4-((3,5-dimethyl-3H-imidazo[4,5-b]pyridin-6-yl)oxy)-3-methylphenyl)amino)pyrido[3,2-d]pyrimidin-6-yl)-2-methylpiperazin-1-yl)prop-2-en-1-one] | 50 to 100 | 500 to 1000
14 | C=CC(=O)N1CCN(c2ccc3ncnc(Nc4ccc(Oc5ccc6c(c5)nnn6C)c(C)c4)c3n2)C[C@@H]1C1CC1 [Compound 250, (S)-1-(2-cyclopropyl-4-(4-((3-methyl-4-((1-methyl-1H-benzo[d][1,2,3]triazol-5-yl)oxy)phenyl)amino)pyrido[3,2-d]pyrimidin-6-yl)piperazin-1-yl)prop-2-en-1-one] | 100 to 500 | 500 to 1000
15 | C=CC(=O)N1CCN(c2ccc3ncnc(Nc4c(OC)cc(Oc5ccc6c(c5)nnn6C)c(C)c4F)c3n2)CC1 [Compound 251, 1-(4-(4-((2-fluoro-6-methoxy-3-methyl-4-((1-methyl-1H-benzo[d][1,2,3]triazol-5-yl)oxy)phenyl)amino)pyrido[3,2-d]pyrimidin-6-yl)piperazin-1-yl)prop-2-en-1-one] | 100 to 500 | 100 to 500
16 | C=CC(=O)N1CCN(c2ccc3ncnc(Nc4ccc(Oc5ccc6c(c5)ncn6C(F)F)c(C)c4F)c3n2)C[C@H]1C [Compound 253, (R)-1-(4-(4-((4-((1-(difluoromethyl)-1H-benzo[d]imidazol-5-yl)oxy)-2-fluoro-3-methylphenyl)amino)pyrido[3,2-d]pyrimidin-6-yl)-2-methylpiperazin-1-yl)prop-2-en-1-one] | 50 to 100 | 100 to 500
17 | C=CC(=O)N1CCN(c2ccc3ncnc(Nc4c(OC)cc(Oc5ccc6c(c5)nnn6C)c(C)c4F)c3n2)C[C@H]1C [Compound 256, (R)-1-(4-(4-((2-fluoro-6-methoxy-3-methyl-4-((1-methyl-1H-benzo[d][1,2,3]triazol-5-yl)oxy)phenyl)amino)pyrido[3,2-d]pyrimidin-6-yl)-2-methylpiperazin-1-yl)prop-2-en-1-one] | 100 to 500 | 100 to 500
18 | C=CC(=O)N1CCN(c2ccc3ncnc(Nc4ccc(Oc5ccc6c(c5)nnn6C)c(C)c4F)c3n2)C[C@H]1CC [Compound 258, (R)-1-(2-ethyl-4-(4-((2-fluoro-3-methyl-4-((1-methyl-1H-benzo[d][1,2,3]triazol-5-yl)oxy)phenyl)amino)pyrido[3,2-d]pyrimidin-6-yl)piperazin-1-yl)prop-2-en-1-one] | 100 to 500 | 100 to 500
19 | C=CC(=O)N1CCN(c2ccc3ncnc(Nc4ccc(Oc5ccc6c(c5)nnn6C)c(C)c4F)c3n2)C[C@H]1C(C)C [Compound 259, (R)-1-(4-(4-((2-fluoro-3-methyl-4-((1-methyl-1H-benzo[d][1,2,3]triazol-5-yl)oxy)phenyl)amino)pyrido[3,2-d]pyrimidin-6-yl)-2-isopropylpiperazin-1-yl)prop-2-en-1-one] | 500 to 1000 | ≥ 1000
20 | C=CC(=O)N[C@@H]1CCCN(c2ccc3ncnc(Nc4ccc(Oc5ccc6c(c5)nnn6C)c(C)c4F)c3n2)C1 [Compound 260, (R)-N-(1-(4-((2-fluoro-3-methyl-4-((1-methyl-1H-benzo[d][1,2,3]triazol-5-yl)oxy)phenyl)amino)pyrido[3,2-d]pyrimidin-6-yl)piperidin-3-yl)acrylamide] | 100 to 500 | 100 to 500
21 | C=CC(=O)N1CCN(c2ccc3ncnc(Nc4ccc(Oc5cnc6c(c5)ncn6C(F)F)c(C)c4F)c3n2)C[C@H]1C [Compound 261, (R)-1-(4-(4-((4-((3-(difluoromethyl)-3H-imidazo[4,5-b]pyridin-6-yl)oxy)-2-fluoro-3-methylphenyl)amino)pyrido[3,2-d]pyrimidin-6-yl)-2-methylpiperazin-1-yl)prop-2-en-1-one] | 100 to 500 | < 50
22 | C=CC(=O)N1CCCN(c2ccc3ncnc(Nc4cc(C)c(Oc5ccc6c(c5)nnn6C)cc4OC)c3n2)CC1 [Compound 264, 1-(4-(4-((2-methoxy-5-methyl-4-((1-methyl-1H-benzo[d][1,2,3]triazol-5-yl)oxy)phenyl)amino)pyrido[3,2-d]pyrimidin-6-yl)-1,4-diazepan-1-yl)prop-2-en-1-one] | 500 to 1000 | 500 to 1000
23 | C=CC(=O)N1CC[C@H](N(C)c2ccc3ncnc(Nc4ccc(Oc5ccc6c(c5)nnn6C)c(C)c4)c3n2)[C@@H]1C [Compound 265, 1-((2S,3S)-2-methyl-3-(methyl(4-((3-methyl-4-((1-methyl-1H-benzo[d][1,2,3]triazol-5-yl)oxy)phenyl)amino)pyrido[3,2-d]pyrimidin-6-yl)amino)pyrrolidin-1-yl)prop-2-en-1-one] | 100 to 500 | 100 to 500
